Experimental data from publication PMC10813393 (Biomolecules, 2023).

How the values were obtained:
in vitro = assay type: cell-based; details: African green monkey; VERO cells, 72 h exposure, CCK-8; read-out: Cytotoxicity (CC50)
Description: A CCK-8 assay (ab228554; Abcam, Cambridge, UK) was performed to evaluate the cytotoxicity of pure compounds. WST-8/CCK8 tetrazolium salt is reduced by cellular dehydrogenases to form an orange formazan product that is soluble in a tissue culture medium. The formazan produced is directly proportional to the number of living and metabolically active cells and is measured via absorbance at 460 nm. Therefore, VERO cells (2 × 10^4 cells/mL) were grown in 96-well microtiter plates at 37 °C in a 5% CO2 incubator for 24 h. Then, they were exposed to serial dilutions of L7OG CY, FA, and RA for 72 h and incubated with CCK8 tetrazolium salt for 4 h at 37 °C in a CO2 incubator. The absorbance was measured at 460 nm using a GloMax® Discover Microplate Reader (Promega, Madison, WI, USA), and the percentage of cellular viability was calculated and compared to untreated cells.
Commercially available cynarin (CY), rosmarinic acid (RA), folic acid (FA), and luteolin-7-O-glucuronide (L7OG) were used to prepare the respective stock solutions.
Specifically, L7OG was dissolved in DMSO to obtain a 5.5 mM solution, RA was dissolved in water to obtain an 8.0 mM solution, CY was dissolved in methanol to obtain a 4.7 mM solution, and FA was dissolved in ethanol to obtain an 8.7 mM solution.
Viability assay of natural compounds
VERO cells were exposed to different concentrations of L7OG, CY, FA, and RA for 72 h and incubated with CCK8 tetrazolium salt for 4 h before measuring the absorbance values in a microplate reader. The percentage of cellular viability was calculated and compared to untreated cells.
Figure S1. Cellular viability assay following treatment with different L7OG, CY, FA, and RA concentrations. VERO cells were incubated for […] with various concentrations of natural compounds, as reported in the material and methods section. Results represent the mean of three biologically independent experiments ± SD.
Table S1. Cytotoxicity (CC50) values (μM) of natural compounds on VERO cells.
(1 picture or pasted object on this page, not shown here)

[1] = target: recombinant SARS-CoV-2 3CL^pro (Severe acute respiratory syndrome coronavirus 2, UniProt P0DTD1); assay: biochemical; assay type: biochemical; details: for inhibition of the enzymatic activity of 3CL^pro (in words): judged from IC50 values; for IC50: luminogenic substrate, 60 min, read-out: IC50 for inhibiting SARS-CoV-2 3CL^pro
[2] = target: recombinant SARS-CoV-2 PL^pro (GST-PL^pro) (Severe acute respiratory syndrome coronavirus 2, UniProt P0DTD1); assay: SARS-CoV-2 PLpro luminescent assay; assay type: biochemical; details: for inhibition of PL^pro (in words): judged from IC50 values; for IC50: luminogenic substrate, 60 min, read-out: IC50 for inhibiting SARS-CoV-2 PL^pro
SARS-CoV-2 M^pro = details: cited from earlier work

Structure (SMILES)	CC50 at 72 h (in vitro)	inhibition of the enzymatic activity of 3CL^pro (in words) [1]	IC50 [1]	inhibition of PL^pro (in words) [2]	IC50 [2]	IC50 (SARS-CoV-2 M^pro)
O=C(/C=C/c1ccc(O)c(O)c1)O[C@@H]1C[C@@](OC(=O)/C=C/c2ccc(O)c(O)c2)(C(=O)O)C[C@@H](O)[C@@H]1O [CY, 1,3-dicaffeoylquinic acid]	91.5 µM	no enzymatic inhibition	> 300 µM			
O=C(O)[C@H]1O[C@@H](Oc2cc(O)c3c(=O)cc(-c4ccc(O)c(O)c4)oc3c2)[C@H](O)[C@@H](O)[C@@H]1O [Compound L7OG, luteolin-7-O-glucuronide]	55.7 µM	moderate inhibition	170 µM	moderately inhibit	153 µM	
Nc1nc(=O)c2nc(CNc3ccc(C(=O)N[C@@H](CCC(=O)O)C(=O)O)cc3)cnc2[nH]1 [FA, folic acid, reference compound]	107 µM	moderate inhibition	232 µM	moderately inhibit	183 µM	
O=C(/C=C/c1ccc(O)c(O)c1)O[C@H](Cc1ccc(O)c(O)c1)C(=O)O [RA, rosmarinic acid]	78.3 µM	no enzymatic inhibition	> 300 µM		> 300 µM	6.84 µM
